Source: publication PMC8536124 (International Journal of Molecular Sciences, 2021)
Like-named read-outs stand apart in the source and are kept apart here.

Columns and labels:
MOLT-4 = assay: NCI-60 screening (SRB); format: cell-based, human; conditions: five-dose
RPMI-8226 = assay: NCI-60 screening (SRB); format: cell-based, human; conditions: five-dose
Breast cancer = assay: NCI-60 screening (SRB), subpanel; format: cell-based
From the text: (§1) The experimental data allow the assessment of the cytostatic effect, indicated by growth inhibition values ranging between 0 and 100, as well as of the cytotoxic effect, indicated by negative values.
(§2) The mean GI50 (molar concentration of the compound that inhibits 50% net cell growth), TGI (molar concentration of the compound leading to the total inhibition), and LC50 (molar concentration of the compound leading to 50% net cell death (presented in negative logarithm)) values across each cell line are shown in Table 2.
(§3) The selectivity index (SI), calculated as the ratio between the full panel MG_MID60 (μM) of compounds 4, 6, and 9 by their respective subpanels MG_MID of the cell line (μM), was introduced as a quantification tool for the selectivity of each compound in terms of anticancer effect (Table 3).
(§4) Primary anticancer assays were performed according to the NCI protocol, as described elsewhere (see e.g., http://dtp.nci.nih.gov accessed on 1 November 2018). The compounds were added at a single concentration, and the cell cultures were incubated for 48 h. The end point determinations were made with a protein-binding dye, sulforhodamine B (SRB). […] The percentage of growth was evaluated spectrophotometrically versus controls not treated with test agents after 48 h exposure and using SRB protein assay to estimate cell viability or growth. Three antitumor activity dose-response parameters were calculated for each cell line. Furthermore, mean graph midpoints (MG_MID) were calculated for each of the parameters, giving an average activity parameter over all cell lines for the tested compound. For the MG_MID calculation, insensitive cell lines were included with the highest concentration tested.

Ovarian cancer = assay: NCI-60 screening (SRB), subpanel; format: cell-based
From the text: as §1, §2, §3, §4

EKVX = assay: NCI-60 screening (SRB); format: cell-based, human; conditions: five-dose
HOP-62 = assay: NCI-60 screening (SRB); format: cell-based, human; conditions: five-dose
HOP-92 = assay: NCI-60 screening (SRB); format: cell-based, human; conditions: five-dose
NCI-H460 = assay: NCI-60 screening (SRB); format: cell-based, human; conditions: five-dose
COLO 205 = assay: NCI-60 screening (SRB); format: cell-based, human; conditions: five-dose
HCC-2998 = assay: NCI-60 screening (SRB); format: cell-based, human; conditions: five-dose
HCT-15 = assay: NCI-60 screening (SRB); format: cell-based, human; conditions: five-dose
SW-620 = assay: NCI-60 screening (SRB); format: cell-based, human; conditions: five-dose
SF-295 = assay: NCI-60 screening (SRB); format: cell-based, human; conditions: five-dose
SF-539 = assay: NCI-60 screening (SRB); format: cell-based, human
CNS cancer = assay: cells; format: cell-based
From the text: as §1, §2, §3, §4

MDA-MB-435 = assay: NCI-60 screening (SRB); format: cell-based, human; conditions: five-dose
SK-MEL-5 = assay: NCI-60 screening (SRB); format: cell-based, human; conditions: SK-MEL-5
OVCAR-3 = assay: NCI-60 screening (SRB); format: cell-based, human; conditions: five-dose
NCI/ADR-RES = assay: NCI-60 screening (SRB); format: cell-based, human; conditions: five-dose
A498 = assay: NCI-60 screening (SRB); format: cell-based, human; conditions: A498, five-dose
SN12C = assay: NCI-60 screening (SRB); format: cell-based, human; conditions: five-dose
DU-145 = assay: NCI-60 screening (SRB); format: cell-based, human; conditions: five-dose
T-47D = assay: NCI-60 screening (SRB); format: cell-based, human; conditions: five-dose
MDA-MB-468 = assay: NCI-60 screening (SRB); format: cell-based, human; conditions: five-dose
[1] = system: NCI-60 cancer cell line panel; assay: NCI-60 screening (SRB), full panel; format: cell-based, human; conditions: for activity at 10 µM: 60 cell lines, 48 h
From the text: as §1, §2, §3, §4

[2] = Homo sapiens, read-out: LC50 (the source's name)

CCN1CCN(C(=O)[C@]23CC[C@@H](C)[C@H](C)[C@H]2C2=CC[C@@H]4[C@@]5(C)CCC(=O)C(C)(C)[C@@H]5CC[C@@]4(C)[C@]2(C)CC3)CC1 [Compound 4, N-(3-oxo-ursan-12-en-28-oyl)-ethylpiperazine]
GI50 (MOLT-4; Homo sapiens): 994 nM | CC50 (MOLT-4; [2]): > 50000 nM | TGI (MOLT-4): 2900 nM | GI50 (RPMI-8226; Homo sapiens): 809 nM | CC50 (RPMI-8226; [2]): 4900 nM | TGI (RPMI-8226): 1990 nM | TGI MG_MID (Breast cancer; Breast cancer subpanel, five-dose): 2330 nM | SI (TGI) (Breast cancer; Breast cancer, MG_MID60/subpanel MG_MID): 1.17 | GI50 (Breast cancer; Homo sapiens, Breast cancer subpanel, five-dose, read-out: GI50 MG_MID): 970 nM | CC50 (Breast cancer; Homo sapiens, Breast cancer subpanel, five-dose, read-out: LC50 MG_MID): 16000 nM | GI50 (Ovarian cancer; Homo sapiens, Ovarian cancer subpanel, five-dose, read-out: GI50 MG_MID): 1190 nM | CC50 (Ovarian cancer; Homo sapiens, Ovarian cancer subpanel, five-dose, read-out: LC50 MG_MID): 16200 nM | SI (TGI) (Ovarian cancer; Ovarian Cancer, MG_MID60/subpanel MG_MID): 0.77 | TGI MG_MID (Ovarian cancer; Ovarian cancer subpanel, five-dose): 3550 nM | GI50 (EKVX; Homo sapiens): 916 nM | LC50 (EKVX; Homo sapiens): 8950 nM | TGI (EKVX): 2420 nM | GI50 (HOP-62; Homo sapiens): 1380 nM | LC50 (HOP-62; Homo sapiens): > 50000 nM | TGI (HOP-62): 3090 nM | GI50 (HOP-92; Homo sapiens): 713 nM | CC50 (HOP-92; [2]): 8220 nM | TGI (HOP-92): 2060 nM | GI50 (NCI-H460; Homo sapiens): 913 nM | CC50 (NCI-H460; [2]): 3270 nM | TGI (NCI-H460): 1750 nM | GI50 (COLO 205; Homo sapiens): 1020 nM | CC50 (COLO 205; [2]): 14500 nM | TGI (COLO 205): 2370 nM | GI50 (HCC-2998; Homo sapiens): 922 nM | CC50 (HCC-2998; [2]): 3600 nM | TGI (HCC-2998): 1820 nM | GI50 (HCT-15; Homo sapiens): 977 nM | CC50 (HCT-15; [2]): 7410 nM | TGI (HCT-15): 2390 nM | GI50 (SW-620; Homo sapiens): 902 nM | CC50 (SW-620; [2]): 3440 nM | TGI (SW-620): 1760 nM | GI50 (SF-295; Homo sapiens): 820 nM | CC50 (SF-295; [2]): 3080 nM | TGI (SF-295): 1590 nM | GI50 (SF-539; Homo sapiens, SF-539, five-dose): 843 nM | CC50 (SF-539; Homo sapiens, SF-539, five-dose, read-out: LC50 (the source's name)): 2800 nM | TGI (SF-539; SF-539, five-dose): 1540 nM | Growth % (SF-539; SF-539 CNS cancer, 1 dose 10 µM): −97.21% | TGI MG_MID (CNS cancer; CNS cancer subpanel, five-dose): 2840 nM | SI (TGI) (CNS cancer; CNS cancer, MG_MID60/subpanel MG_MID): 0.96 | GI50 (CNS cancer; Homo sapiens, CNS cancer subpanel, five-dose, read-out: GI50 MG_MID): 1030 nM | CC50 (CNS cancer; Homo sapiens, CNS cancer subpanel, five-dose, read-out: LC50 MG_MID): 8690 nM | GI50 (MDA-MB-435; Homo sapiens): 1050 nM | CC50 (MDA-MB-435; [2]): 5220 nM | TGI (MDA-MB-435): 2300 nM | GI50 (SK-MEL-5; Homo sapiens, five-dose): 888 nM | CC50 (SK-MEL-5; Homo sapiens, five-dose, read-out: LC50 (the source's name)): 2890 nM | Growth % (SK-MEL-5; 1 dose 10 µM): −84.06% | TGI (SK-MEL-5; five-dose): 1600 nM | GI50 (OVCAR-3; Homo sapiens): 1100 nM | CC50 (OVCAR-3; [2]): 6520 nM | TGI (OVCAR-3): 2440 nM | GI50 (NCI/ADR-RES; Homo sapiens): 1080 nM | CC50 (NCI/ADR-RES; [2]): 18300 nM | TGI (NCI/ADR-RES): 3240 nM | TGI (A498): 2420 nM | GI50 (A498; Homo sapiens): 927 nM | CC50 (A498; [2]): 7920 nM | GI50 (SN12C; Homo sapiens): 776 nM | CC50 (SN12C; [2]): 2810 nM | TGI (SN12C): 1480 nM | GI50 (DU-145; Homo sapiens): 1670 nM | CC50 (DU-145; [2]): 18600 nM | TGI (DU-145): 5620 nM | GI50 (T-47D; Homo sapiens, T47D): 1330 nM | LC50 (concentration killing 50% of cells) (T-47D; Homo sapiens, T47D): > 50000 nM | TGI (T-47D): 3890 nM | GI50 (MDA-MB-468; Homo sapiens): 931 nM | CC50 (MDA-MB-468; [2]): 9270 nM | TGI (MDA-MB-468): 2320 nM | Positive Cytostatic Effect (cell lines with percent growth 0 to 50 / total) ([1]; 1 dose 10 µM): 60/60 | Positive Cytotoxic Effect (cell lines with percent growth <0 / total) ([1]; 1 dose 10 µM): 60/60 | GI50 ([1]; Homo sapiens, five-dose, bound, read-out: GI50 against all human tumor cells): < 2000 nM | GI50 ([1]; Homo sapiens, five-dose, read-out: GI50 against the most sensitive cell lines): 700 to 990 nM | GI50 ([1]; Homo sapiens, mean graph midpoint, full panel, five-dose, read-out: GI50 MG_MID60): 1030 nM | CC50 ([1]; Homo sapiens, mean graph midpoint, full panel, five-dose, read-out: LC50 MG_MID60): 12300 nM | activity at 10 µM ([1]; Homo sapiens, 1 dose 10 µM, read-out: Mean Growth, %): -10.5% | activity at 10 µM ([1]; Homo sapiens, 1 dose 10 µM, read-out: Range of Growth, %): -85.7 to -41.5% | selectivity class ([1]; all GI50, TGI, and LC50 levels): nonselective (ratios below 3 indicate nonselective compounds) | TGI MG_MID60 ([1]; mean graph midpoint, full panel, five-dose): 2740 nM
